These results are taken from PMC8637440, “Structural Modifications Yield Novel Insights Into the Intriguing Pharmacodynamic Potential of Anti-inflammatory Nitro-Fatty Acids” (Frontiers in Pharmacology, 2021).

Several values for one entry are separate records, joined by “and”; a condition that tells them apart may be missing. Equal entries are not always repeated.

The target in the first data set is T1, 15-LO (Homo sapiens, UniProt P16050).
T1 construct: endogenous in cells; host or cells: eosinophils in human PMNL preparations
T1 sequence (P16050 1-662): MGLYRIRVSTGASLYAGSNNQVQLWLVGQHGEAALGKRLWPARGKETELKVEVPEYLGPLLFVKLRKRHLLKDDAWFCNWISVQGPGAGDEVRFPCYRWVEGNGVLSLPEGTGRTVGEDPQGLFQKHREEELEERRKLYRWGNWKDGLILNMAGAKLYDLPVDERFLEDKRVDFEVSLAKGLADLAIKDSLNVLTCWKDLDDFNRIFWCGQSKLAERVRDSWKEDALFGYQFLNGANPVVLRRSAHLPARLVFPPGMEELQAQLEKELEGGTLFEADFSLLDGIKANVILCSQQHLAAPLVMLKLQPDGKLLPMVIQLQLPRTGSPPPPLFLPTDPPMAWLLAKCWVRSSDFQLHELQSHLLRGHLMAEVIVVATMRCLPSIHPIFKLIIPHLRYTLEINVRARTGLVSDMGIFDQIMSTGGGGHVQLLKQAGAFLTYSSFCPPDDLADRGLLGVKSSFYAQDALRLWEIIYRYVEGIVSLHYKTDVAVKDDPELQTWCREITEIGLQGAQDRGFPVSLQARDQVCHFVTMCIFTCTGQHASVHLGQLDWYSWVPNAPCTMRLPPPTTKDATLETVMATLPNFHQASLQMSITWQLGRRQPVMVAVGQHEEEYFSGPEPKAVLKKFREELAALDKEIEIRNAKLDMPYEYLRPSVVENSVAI
Description: 15-HETE formation in intact PMNL preparations, A23187 + 20 µM AA. The data set is classed as cell-based. Conditions: PMNL (20 µM AA) 15-HETE IC50, intact PMNL, 15 min preincubation, A23187 2.5 µM + 20 µM AA; n.i. = no inhibition observed. Here is the method:
Buffy coats from different donors of different blood types were commercially obtained from DRK Blutspendedienst Baden-Württemberg Institute Frankfurt. Donors have given their written consent. […] Following separation, the supernatant was transferred very gently to new 50-ml tubes containing lymphocyte separation medium (LSM) and centrifuged for 10 min at 800 ×g at RT with the centrifuge brake turned off. Afterwards, the supernatant was decanted carefully to discard the platelets and monocytes. The PMNL were washed with 1× PBS before the residual erythrocytes were lysed in two cycles: the cell pellet was resuspended with 10 ml H2O and vortexed for 45 s, and lysis was stopped with 40 ml 1 × PBS. After 10-min centrifugation at 200 ×g at RT, the cycle was repeated once. The supernatant was aspirated, the cell pellet resuspended in 5 ml PBS/glucose and initially separated PMNL preparations with different blood types were finally pooled to gain a sufficient number of cells. […] The enzyme was diluted in PBS/EDTA/ATP, transferred into 5-ml glass tubes, and stored on ice. […] The reaction was stopped by placing the glass tubes on ice. The supernatants were transferred to 1.5 ml reaction tubes and stored at −80°C before LC-MS (liquid chromatography and mass spectrometry) analysis of LTB4 and HETEs as described in 2.6 at the Institute of Pharmacology, Goethe University, University Hospital, Germany. The lipid mediators LTB4, hydroxyeicosatetraenoic acids, 5(S)-HETE, 12(S)-HETE, 15(S)-HETE and 20-HETE were analyzed using liquid chromatography tandem-mass spectroscopy (LC-MS/MS). The LC-MS/MS system consisted of a 5500 QTrap mass spectrometer (Sciex, Darmstadt, Germany), operating in negative ESI mode, an Agilent 1200 HPLC system (Agilent, Waldbronn, Germany) and an HTC Pal autosampler (Chromtech, Idstein, Germany). Sample extraction of LTB4 and HETEs were performed using liquid-liquid extraction: 200 µl of the sample were gently mixed with 20 µl of methanol and 20 µl of internal standard solution and extracted twice with 600 µl ethyl acetate. […] Working solutions of all analytes were prepared in methanol containing 0.1% BHT. The calibration standards were prepared by further dilution of the working standards. […] The residues were reconstituted in 50 µl of methanol:water:BHT (50:50:10^−4, v/v/v) prior to injection into the LC-MS/MS system. Chromatographic separation was achieved using a Gemini NX C18 column (150 mm × 2 mm ID, 5 µm, Phenomenex, Aschaffenburg, Germany) with a precolumn of the same material. A linear gradient was employed at a flow rate of 0.5 ml/min and a total run time of 17.5 min. Mobile phases were A water:ammonia (100:0.05, v/v) and B acetonitrile:ammonia (100:0.05, v/v). […] All data were acquired using Analyst software v1.6.2 and quantitation was performed by MultiQuant software v3.0 (both Sciex, Darmstadt, Germany) using the internal standard method (isotope-dilution mass spectrometry). Calibration curves were calculated by linear regression with 1/x.
Regarding `CCCCCCCCCCCCCC=C(CCC(=O)O)[N+](=O)[O-]` [18.4.4, 4-nitro-octadec-4-enoic acid], the IC50 was found to be 7.7 ± 1.2 µM.
On to `CCCCCCCCCCCCC=C(CCCC(=O)O)[N+](=O)[O-]` [18.5.5, 5-nitro-octadec-5-enoic acid], for which the IC50 amounted to 8.9 ± 1.2 µM.
In the case of `CCCCCCCCCCCC=C(CCCCC(=O)O)[N+](=O)[O-]` [18.6.6, 6-nitro-octadec-6-enoic acid], the IC50 is 14.8 ± 1.1 µM.
Same read-out and setting: the figure for `CCCCCCCCCCCC(=CCCCCC(=O)O)[N+](=O)[O-]` [18.6.7, 7-nitro-octadec-6-enoic acid] is 17.3 ± 1.1 µM.
On the same count and under the same terms, under `CCCCCCCCCCC=C(CCCCCC(=O)O)[N+](=O)[O-]` [18.7.7, 7-nitro-octadec-7-enoic acid] stands 7.6 ± 1.1 µM; under `CCCCCCCCCC=C(CCCCCCC(=O)O)[N+](=O)[O-]` [18.8.8, 8-nitro-octadec-8-enoic acid], 16 ± 1.1 µM; under `CCCCCCCCCC(=CCCCCCCC(=O)O)[N+](=O)[O-]` [18.8.9, 9-nitro-octadec-8-enoic acid], 23.4 ± 1.3 µM.
The same measure, in the same setting: under `CCCCCCCCC=C(CCCCCCCC(=O)O)[N+](=O)[O-]` [18.9.9, 9-nitro-octadec-9-enoic acid] stands 17.6 µM and 20.4 µM; under `CCCCCCCCC(=CCCCCCCCC(=O)O)[N+](=O)[O-]` [18.9.10, 10-nitro-octadec-9-enoic acid], 20.5 ± 1.3 µM; under `CCCCCCCC=C(CCCCCCCCC(=O)O)[N+](=O)[O-]` [18.10.10, 10-nitro-octadec-10-enoic acid], 19.6 ± 1.1 µM.
Consider `CCCCCCC=C(CCCCCCCCCC(=O)O)[N+](=O)[O-]` [18.11.11, 11-nitro-octadec-11-enoic acid], for which the IC50 worked out at 26 ± 1.3 µM.
Same read-out and setting: the figure for `CCCCCCCCCCC=C(CCCCCCCC(=O)O)[N+](=O)[O-]` [20.9.9, 9-nitro-eicos-9-enoic acid] is 21.2 ± 1.1 µM.

The data set is the same for the next values; noted with them: intact PMNL, 15 min preincubation, A23187 2.5 µM + 20 µM AA; n.i. = no inhibition observed.
For the compound `CCC=C(CCCCCCCC(=O)O)[N+](=O)[O-]` [12.9.9, 9-nitro-dodec-9-enoic acid], the “PMNL (20 µM AA) 15-HETE IC50” value was “n.i”.
On the same count and under the same terms, the entry for `CCCCC=C(CCCCCCCC(=O)O)[N+](=O)[O-]` [14.9.9, 9-nitro-tetradec-9-enoic acid] is “n.i”.
For `CCCCCCC=C(CCCCCCCC(=O)O)[N+](=O)[O-]` [16.9.9, 9-nitro-hexadec-9-enoic acid], the “PMNL (20 µM AA) 15-HETE IC50” value is recorded as “n.i”.
On to `CCCCCCCC/C=C\CCCCCCCC(=O)O` [OA, oleic acid, reference compound], for which the “PMNL (20 µM AA) 15-HETE IC50” value was “not affected and n.i”.

A further data set relates to HCT-116 cells. The data set is described as follows: WST-1 cell viability assay, HCT-116. The data set is classed as cell-based, human. Conditions: HCT-116 and HT-29 cells. On the procedure: Cell viability was analyzed with the WST-1 assay based on the cleavage of the stable tetrazolium salt WST-1 by the mitochondrial reductase system. Cells were seeded in the appropriate densities in a clear 96-well plate and settled overnight at 37°C in 5% CO2. The next day, the cells were treated with NFA or the substances of interest (≤0.1% dimethyl sulfoxide [DMSO]) and incubated for 24 or 48 h at 37°C in 5% CO2. Cell viability was analyzed by adding 10 µl WST-1 solution (Roche, Basel, Switzerland) and subsequently incubating the cells at 37°C for another 30–40 min. Absorbance was measured at 450 nm with a control wavelength at 620 nm using a plate reader.
Besides targeting the NF-κB pathway, the anti-tumorigenic effects of NFA can be observed by a reduction of colorectal cancer cell viability. […] Again, the cytotoxic effects of NFA were determined in HCT-116 and HT-29 colorectal cancer cells in the present study. […] HCT-116 cells were treated with increasing concentrations of NFA differing in chain length and Michael acceptor position for 24 h, and cell viability was determined using the WST-1 assay. Due to their prolonged cell division rate and their lack of sensitivity towards NFA ([Kühn et al., 2018]), HT-29 cells were treated for 48 h to gain improved NFA activity.
On the technique in general: Tetrazolium assays rely on reduction of a dye to a coloured formazan, in cell work by metabolically active cells.
Regarding `CCCCCCCCCCC=C(CCCCCC(=O)O)[N+](=O)[O-]` [18.7.7, 7-nitro-octadec-7-enoic acid], the “cytotoxic potency higher compared to 9NOA” value is given as greater than 2 fold.
Take `CCCCCCCCCC=C(CCCCCCC(=O)O)[N+](=O)[O-]` [18.8.8, 8-nitro-octadec-8-enoic acid]: the “cytotoxic potency higher compared to 9NOA” value is recorded as greater than 2 fold.

Still in this data set, the particulars now being: Homo sapiens, HCT-116; WST-1 cell viability, 24 h; n.i. = no inhibition observed.
With `CCC=C(CCCCCCCC(=O)O)[N+](=O)[O-]` [12.9.9, 9-nitro-dodec-9-enoic acid], the midpoint of inhibition, the IC50, lay at 23.1 ± 1.1 µM.
Same read-out and setting: the figure for `CCCCC=C(CCCCCCCC(=O)O)[N+](=O)[O-]` [14.9.9, 9-nitro-tetradec-9-enoic acid] is 16.8 ± 1.1 µM; for `CCCCCCC=C(CCCCCCCC(=O)O)[N+](=O)[O-]` [16.9.9, 9-nitro-hexadec-9-enoic acid] it is 10.5 ± 1.1 µM.
On the same count and under the same terms, under `CCCCCCCCCCCCCC=C(CCC(=O)O)[N+](=O)[O-]` [18.4.4, 4-nitro-octadec-4-enoic acid] stands 18.6 ± 1.1 µM; under `CCCCCCCCCCCCC=C(CCCC(=O)O)[N+](=O)[O-]` [18.5.5, 5-nitro-octadec-5-enoic acid], 11.6 ± 1.1 µM.
Same read-out and setting: under `CCCCCCCCCCCC=C(CCCCC(=O)O)[N+](=O)[O-]` [18.6.6, 6-nitro-octadec-6-enoic acid] stands 7.6 ± 1.1 µM; under `CCCCCCCCCCCC(=CCCCCC(=O)O)[N+](=O)[O-]` [18.6.7, 7-nitro-octadec-6-enoic acid], 8.1 ± 1.1 µM.
`CCCCCCCCCCC=C(CCCCCC(=O)O)[N+](=O)[O-]` [18.7.7, 7-nitro-octadec-7-enoic acid]: 2.7 ± 1.1 µM corresponded to half-maximal inhibition (IC50).
On the same count and under the same terms, the figure for `CCCCCCCCCC=C(CCCCCCC(=O)O)[N+](=O)[O-]` [18.8.8, 8-nitro-octadec-8-enoic acid] is 2.1 ± 1.1 µM; for `CCCCCCCCCC(=CCCCCCCC(=O)O)[N+](=O)[O-]` [18.8.9, 9-nitro-octadec-8-enoic acid] it is 4.6 ± 1.1 µM.
The compound `CCCCCCCCC=C(CCCCCCCC(=O)O)[N+](=O)[O-]` [18.9.9, 9-nitro-octadec-9-enoic acid] registered an IC50 of 6.4 ± 1.2 µM.
On to `CCCCCCCCC(=CCCCCCCCC(=O)O)[N+](=O)[O-]` [18.9.10, 10-nitro-octadec-9-enoic acid], for which the IC50 was 13.5 ± 1.1 µM.
The compound `CCCCCCCC=C(CCCCCCCCC(=O)O)[N+](=O)[O-]` [18.10.10, 10-nitro-octadec-10-enoic acid] displayed an IC50 of 13.6 ± 1.1 µM.
`CCCCCCC=C(CCCCCCCCCC(=O)O)[N+](=O)[O-]` [18.11.11, 11-nitro-octadec-11-enoic acid]: the IC50 worked out at 16 ± 1.1 µM.
As for `CCCCCCCCCCC=C(CCCCCCCC(=O)O)[N+](=O)[O-]` [20.9.9, 9-nitro-eicos-9-enoic acid], the IC50 worked out at 5.4 ± 1.1 µM.

The same data set, now with this note: WST-1 cell viability, 24 h; n.i. = no inhibition observed.
On to `CCCCCCCC/C=C\CCCCCCCC(=O)O` [OA, oleic acid, reference compound], for which the “HCT-116 (24 h) IC50” value was “failed to induce cytotoxic effects and n.i”.

One may read the IC50 as the concentration at which inhibition is half-maximal.
